Reference: US20260297060A1, “COMPOUNDS FOR THE DEGRADATION OF MUTANT BRAF” (C4 THERAPEUTICS, INC., priority 2023, published 2026)

System: A375-NRAS^Q61K cells
Assay: CTGlo Cell Viability Assay, A375-NRAS^Q61K (A375.11) cells, 96 hours
Type: cell-based, human
Conditions: A375.11 (A375-NRAS^Q61K) cells; for Emax: lowest % viability achieved
In short: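 Viability as CellTiter-Glo ATP luminescence after 96 h compound exposure at 37 °C; A375.11 (BRAF V600E/NRAS Q61K) cells at 250/well, top final concentration 10 μM in half-log steps. Signal was background-corrected and set relative to DMSO controls. A 4-parameter logistic fit gave GI50 (50% crossing) and Emax.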

GI50 (Homo sapiens, 96 h)	GI50	SMILES	Emax (Homo sapiens, 96 h)
< 1000 nM		CCN(C)S(=O)(=O)Nc1ccc(F)c(Oc2ccc3ncn([C@H]4COC5(CCN(C6CCC(c7ccc(N[C@H]8CCC(=O)NC8=O)cc7F)CC6)CC5)C4)c(=O)c3c2)c1C#N (single isomer, unassigned) [Compound 3]	< 50%
< 1000 nM		CCN(C)S(=O)(=O)Nc1ccc(F)c(Oc2ccc3ncn([C@H]4COC5(CCN(C6CCC(c7ccc(N[C@@H]8CCC(=O)NC8=O)cc7F)CC6)CC5)C4)c(=O)c3c2)c1C#N (single isomer, unassigned) [Compound 4]	< 50%
< 1000 nM		CCN(C)S(=O)(=O)Nc1ccc(F)c(Oc2ccc3ncn(C4CC5(CCN(C6CCC(c7ccc(NC8CCC(=O)NC8=O)cc7F)CC6)CC5)C4)c(=O)c3c2)c1C#N (single isomer, unassigned) [Compound 6, 6-[2-cyano-3-[[ethyl(methyl)sulfamoyl]amino]-6-fluoro-phenoxy]-3-[7-[4-[4-[(2,6-dioxo-3-piperidyl)amino]-2-fluoro-phenyl]cyclohexyl]-7-azaspiro[3.5]nonan-2-yl]-4-oxo-quinazoline]	< 50%
< 1000 nM		CCN(C)S(=O)(=O)Nc1ccc(F)c(Oc2ccc3ncn(C4CC5(CCN(C6CCC(c7cc8c(cc7F)c(N7CCC(=O)NC7=O)nn8C)CC6)CC5)C4)c(=O)c3c2)c1C#N (single isomer, unassigned) [Compound 8, 6-[2-cyano-3-[[ethyl(methyl)sulfamoyl]amino]-6-fluoro-phenoxy]-3-[7-[4-[3-(2,4-dioxohexahydropyrimidin-1-yl)-5-fluoro-1-methyl-indazol-6-yl]cyclohexyl]-7-azaspiro[3.5]nonan-2-yl]-4-oxo-quinazoline]	< 50%
1000 to 10000 nM		CCN(C)S(=O)(=O)Nc1ccc(F)c(Oc2ccc3ncn([C@@H]4C[C@@H]5CN(C6CCC(c7ccc(NC8CCC(=O)NC8=O)cc7F)CC6)C[C@@H]5C4)c(=O)c3c2)c1C#N (single isomer, unassigned) [Compound 21]	50 to 90%
< 1000 nM		CCN(C)S(=O)(=O)Nc1ccc(F)c(Oc2ccc3ncn([C@H]4CCC5(CCN(C6CCC(c7ccc(NC8CCC(=O)NC8=O)cc7F)CC6)CC5)C4)c(=O)c3c2)c1C#N (single isomer, unassigned) [Compound 24]	< 50%
< 1000 nM		CCN(C)S(=O)(=O)Nc1ccc(F)c(Oc2ccc3ncn([C@H]4COC5(CCN(C6CCC(c7cc8c(cc7F)c(N7CCC(=O)NC7=O)nn8C)CC6)CC5)C4)c(=O)c3c2F)c1C#N (single isomer, unassigned) [Compound 41]	< 50%
< 1000 nM		CCN(C)S(=O)(=O)Nc1ccc(F)c(Oc2ccc3ncn([C@H]4COC5(CCN(C6CCC(c7cc8c(cc7F)c(N7CCC(=O)NC7=O)nn8C)CC6O)CC5)C4)c(=O)c3c2)c1C#N (single isomer, unassigned) [Compound 43]	50 to 90%
< 1000 nM		CCN(C)S(=O)(=O)Nc1ccc(F)c(Oc2ccc3ncn([C@@H]4COC5(CCN(C6CCC(c7cc8c(cc7F)c(N7CCC(=O)NC7=O)nn8C)CC6)CC5)C4)c(=O)c3c2F)c1C#N (single isomer, unassigned) [Compound 46]	< 50%
< 1000 nM		CCN(C)S(=O)(=O)Nc1ccc(F)c(Oc2ccc3ncc([C@H]4COC5(CCN(C6CCC(c7cc8c(cc7F)c(N7CCC(=O)NC7=O)nn8C)CC6)CC5)C4)nc3c2)c1C#N (single isomer, unassigned) [Compound 48]	< 50%
< 1000 nM		CCN(C)S(=O)(=O)Nc1ccc(F)c(Oc2ccc3ncn([C@H]4COC5(CCN(C6CCC(c7ccc(NC8CCC(=O)NC8=O)cc7F)CC6)CC5)C4)c(=O)c3c2F)c1C#N (single isomer, unassigned) [Compound 50]	< 50%
	> 10000 nM	CCN(C)S(=O)(=O)Nc1ccc(F)c(Oc2ccc3ncn([C@@H]4COC5(CCN(C6CCC(c7ccc(NC8CCC(=O)NC8=O)cc7F)CC6)CC5)C4)c(=O)c3c2F)c1C#N (single isomer, unassigned) [Compound 52]	50 to 90%
< 1000 nM		CCN(C)S(=O)(=O)Nc1ccc(F)c(Oc2ccc3ncc([C@H]4COC5(CCN(C6CCC(c7ccc(NC8CCC(=O)NC8=O)cc7F)CC6)CC5)C4)nc3c2)c1C#N (single isomer, unassigned) [Compound 58]	< 50%
< 1000 nM		CCN(C)S(=O)(=O)Nc1ccc(F)c(Oc2ccc3ncn([C@H]4COC5(CCN(C6CC(c7ccc(NC8CCC(=O)NC8=O)cc7F)C6)CC5)C4)c(=O)c3c2)c1C#N (single isomer, unassigned) [Compound 62]	< 50%
	1000 to 10000 nM	CCN(C)S(=O)(=O)Nc1ccc(F)c(Nc2ccc3ncn([C@H]4COC5(CCN(C6CCC(c7cc8c(cc7F)c(N7CCC(=O)NC7=O)nn8C)CC6)CC5)C4)c(=O)c3c2)c1C#N (single isomer, unassigned) [Compound 64]	50 to 90%
< 1000 nM		CCN(C)S(=O)(=O)Nc1ccc(F)c(Nc2ccc3ncn([C@H]4COC5(CCN(C6CCC(c7cc8c(cc7F)c(N7CCC(=O)NC7=O)nn8C)CC6)CC5)C4)c(=O)c3c2F)c1C#N (single isomer, unassigned) [Compound 67]	< 50%
< 1000 nM		CCN(C)S(=O)(=O)Nc1ccc(F)c(Oc2ccc3ncn([C@H]4COC5(CCN(C6CCC(c7cc8c(cc7F)c(N7CCC(=O)NC7=O)nn8C)CC6)CC5)C4)c(=O)c3c2)c1F (single isomer, unassigned) [Compound 71]	< 50%
1000 to 10000 nM		CN(CCO)S(=O)(=O)Nc1ccc(F)c(Oc2ccc3ncn([C@H]4COC5(CCN(C6CCC(c7cc8c(cc7F)c(N7CCC(=O)NC7=O)nn8C)CC6)CC5)C4)c(=O)c3c2)c1C#N (single isomer, unassigned) [Compound 73]	< 50%
< 1000 nM		CN(CCO)S(=O)(=O)Nc1ccc(F)c(Oc2ccc3ncn([C@H]4COC5(CCN(C6CCC(c7ccc(NC8CCC(=O)NC8=O)cc7F)CC6)CC5)C4)c(=O)c3c2)c1C#N (single isomer, unassigned) [Compound 76]	< 50%
< 1000 nM		CCN(C)S(=O)(=O)Nc1ccc(F)c(Oc2ccc3ncn([C@H]4COC5(CCN(C6CCC(c7ccc(NC8CCC(=O)NC8=O)cc7F)CC6)CC5)C4)c(=O)c3c2)c1F (single isomer, unassigned) [Compound 78]	< 50%
	1000 to 10000 nM	CN(CCO)S(=O)(=O)Nc1ccc(F)c(Oc2ccc3ncn(C4CC5(CCN(C6CCC(c7ccc(NC8CCC(=O)NC8=O)cc7F)CC6)CC5)C4)c(=O)c3c2)c1C#N (single isomer, unassigned) [Compound 79, 6-[2-cyano-6-fluoro-3-[[2-hydroxyethyl(methyl)sulfamoyl]amino]phenoxy]-3-[7-[4-[4-[(2,6-dioxo-3-piperidyl)amino]-2-fluoro-phenyl]cyclohexyl]-7-azaspiro[3.5]nonan-2-yl]-4-oxo-quinazoline]	50 to 90%
1000 to 10000 nM		CN(CCO)S(=O)(=O)Nc1ccc(F)c(Oc2ccc3ncn(C4CC5(CCN(C6CCC(c7cc8c(cc7F)c(N7CCC(=O)NC7=O)nn8C)CC6)CC5)C4)c(=O)c3c2)c1C#N (single isomer, unassigned) [Compound 81, 6-[2-cyano-6-fluoro-3-[[2-hydroxyethyl(methyl)sulfamoyl]amino]phenoxy]-3-[7-[4-[3-(2,4-dioxohexahydropyrimidin-1-yl)-5-fluoro-1-methyl-indazol-6-yl]cyclohexyl]-7-azaspiro[3.5]nonan-2-yl]-4-oxo-quinazoline]	50 to 90%
< 1000 nM		CC(C)S(=O)(=O)Nc1ccc(F)c(Oc2ccc3ncn([C@H]4COC5(CCN(C6CCC(c7cc8c(cc7F)c(N7CCC(=O)NC7=O)nn8C)CC6)CC5)C4)c(=O)c3c2)c1C#N (single isomer, unassigned) [Compound 87]	< 50%
< 1000 nM		CCN(C)S(=O)(=O)Nc1ccc(F)c(Nc2ccc3ncn([C@@H]4COC5(CCN(C6CCC(c7ccc(NC8CCC(=O)NC8=O)cc7F)CC6)CC5)C4)c(=O)c3c2F)c1C#N (single isomer, unassigned) [Compound 90]	50 to 90%
< 1000 nM		CC(C)S(=O)(=O)Nc1ccc(F)c(Oc2ccc3ncn([C@H]4COC5(CCN(C6CCC(c7ccc(NC8CCC(=O)NC8=O)cc7F)CC6)CC5)C4)c(=O)c3c2)c1C#N (single isomer, unassigned) [Compound 92]	< 50%
< 1000 nM		CC(C)S(=O)(=O)Nc1ccc(F)c(Oc2ccc3ncn(C4CC5(CCN(C6CCC(c7cc8c(cc7F)c(N7CCC(=O)NC7=O)nn8C)CC6)CC5)C4)c(=O)c3c2)c1C#N (single isomer, unassigned) [Compound 95, N-[2-cyano-3-[3-[7-[4-[3-(2,4-dioxohexahydropyrimidin-1-yl)-5-fluoro-1-methyl-indazol-6-yl]cyclohexyl]-7-azaspiro[3.5]nonan-2-yl]-4-oxo-quinazolin-6-yl]oxy-4-fluoro-phenyl]propane-2-sulfonamide]	50 to 90%
< 1000 nM		CO[C@@H]1CCN(S(=O)(=O)Nc2ccc(F)c(Oc3ccc4ncn([C@H]5COC6(CCN(C7CCC(c8cc9c(cc8F)c(N8CCC(=O)NC8=O)nn9C)CC7)CC6)C5)c(=O)c4c3)c2C#N)C1 (single isomer, unassigned) [Compound 100]	< 50%
< 1000 nM		CO[C@@H]1CCN(S(=O)(=O)Nc2ccc(F)c(Oc3ccc4ncn(C5CC6(CCN(C7CCC(c8cc9c(cc8F)c(N8CCC(=O)NC8=O)nn9C)CC7)CC6)C5)c(=O)c4c3)c2C#N)C1 (single isomer, unassigned) [Compound 101]	< 50%
	> 10000 nM	CO[C@H]1CCN(S(=O)(=O)Nc2ccc(F)c(Oc3ccc4ncn(C5CC6(CCN(C7CCC(c8cc9c(cc8F)c(N8CCC(=O)NC8=O)nn9C)CC7)CC6)C5)c(=O)c4c3)c2C#N)C1 (single isomer, unassigned) [Compound 103]	50 to 90%
